From patent US11851391B2, “Antifungal compounds and methods of forming the same” (University of Kentucky Research Foundation, priority 2018, dated 2023) come the findings set out here.

Molecules are shown by their SMILES. ≈ marks a conversion by molar mass, not a printed value. Like-named read-outs stand apart in the source and are kept apart here. Some results are limits rather than exact numbers.

Data set [1] has as its system Candida albicans ATCC 10231(R) (strain A). Briefly: MIC determination, in vitro antifungal assay (CLSI M27-A3). Conditions: MIC-0 (no visible growth), 48 h at 35° C. The class given is cell-based. On the procedure: (§1) The activity of N,N′-diaryl-bishydrazones 7-22 was tested against a panel of seven strains of C. albicans: ATCC 10231(R) (A), ATCC 64124(R) (B), ATCC MYA-2876(S) (C), ATCC 90819(R) (D), ATCC MYA-2310(S) (E), ATCC MYA-1237(R) (F), and ATCC MYA-1003(R) (G). The activity of these bishydrazones 7-22 was also explored against a panel of three non-albicans Candida strains: C. glabrata ATCC 2001 (H), C. krusei ATCC 6258 (I), and C. parapsilosis ATCC 22019 (J). Finally, the activity of these bishydrazones 7-22 was explored against three Aspergillus strains: A. flavus ATCC MYA-3631 (K), A. nidulans ATCC 38163 (L), and A. terreus ATCC MYA-3633 (M).
(§2) Candida albicans ATCC 10231 (A), C. albicans ATCC 64124 (B), and C. albicans ATCC MYA-2876 (C) were kindly provided by Dr. Jon Y. Takemoto (Utah State University, Logan, UT, USA). C. albicans ATCC 90819 (D), C. albicans ATCC MYA-2310 (E), C. albicans ATCC MYA-1237 (F), C. albicans ATCC MYA-1003 (G), Candida glabrata ATCC 2001 (H), Candida krusei ATCC 6258 (I), Candida parapsilosis ATCC 22019 (J), Aspergillus flavus ATCC MYA-3631 (K), and Aspergillus terreus ATCC MYA-3633 (M) were obtained from the American Type Culture Collection (ATCC; Manassas, VA, USA). Aspergillus nidulans ATCC 38163 (L) was received from Dr. Jon S. Thorson (University of Kentucky, Lexington, KY, USA). Filamentous fungi and yeasts were cultivated at 35° C. in RPMI 1640 medium (with 1-glutamine, without sodium biocarbonate, Sigma-Aldrich, St. Louis, MO) buffered to a pH of 7.0 with 0.165 M morpholinepropanesulfonic acid (MOPS) buffer (Sigma-Aldrich).
(§3) The MIC values of compounds 7a-24c against yeast cells (strains A-J) were determined in 96-well plates as described in the CLSI document M27-A3 with minor modifications. A single colony of freshly prepared yeast cells was used to inoculate 5 mL of yeast extract peptone dextrose (YPD) broth prior to incubation overnight with shaking at 200 rpm at 35° C. From the actively growing yeast culture, 100 μL were then transferred to 900 μL of sterile ddH2O and re-adjusted to achieve OD600 of 0.12 (˜1×10^6 CFU/mL). The cell suspension was further diluted to achieve 2-4×10^3 CFU/mL in RPMI 1640 medium. […] The final concentration of DMSO was ensured to be <1.25% in all experiments. The MIC values for compounds 7a-24c and CAS were defined as the minimum drug concentration that yielded complete inhibition (also known as MIC-0).

For data set [2], the system named is Candida parapsilosis ATCC 22019 (strain J). The data set is described as above. The class given is cell-based. Particulars: Lodderomyces parapsilosis, ATCC22019, 48 h, strain J; MIC-0; 48 h at 35° C.; read-out: MIC. How it is done: as §1, §2, §3
The subject of data set [3] is C. albicans ATCC 64124(R) (strain B). The description is as above. It counts as cell-based, Candida albicans. Conditions: Candida albicans, ATCC64124, 48 h, strain B; MIC-0; 48 h at 35° C.; read-out: MIC. How it is done:
as §1, §2, §3

The subject of data set [4] is C. albicans ATCC 90819(R) (strain D). Described as above. The class given is cell-based, Candida albicans. Particulars: Candida albicans, ATCC90819, 48 h, MIC-0, 48 h at 35° C., read-out: MIC. On the procedure:
as §1, §2, §3

The test system of data set [5] is C. albicans ATCC MYA-1237(R) (strain F). Described as above. The class given is cell-based, Candida albicans. Conditions: Candida albicans, 48 h, MIC-0, 48 h at 35° C., read-out: MIC. How it is done:
as §1, §2, §3

Data set [6] deals with C. albicans ATCC MYA-2310(S) (strain E). The data set is described as above. Conditions: Candida albicans, 48 h, MIC-0, 48 h at 35° C., read-out: MIC. The class given is cell-based, Candida albicans. How it is done: as §1, §2, §3
In data set [7] the test system is C. albicans ATCC MYA-1003(R) (strain G). Described as above. It counts as cell-based, Candida albicans. Conditions: Candida albicans, 48 h, MIC-0, 48 h at 35° C., read-out: MIC. How it is done:
as §1, §2
(§4) A single colony of freshly prepared yeast cells was used to inoculate 5 mL of yeast extract peptone dextrose (YPD) broth prior to incubation overnight with shaking at 200 rpm at 35° C. From the actively growing yeast culture, 100 μL were then transferred to 900 μL of sterile ddH2O and re-adjusted to achieve OD600 of 0.12 (˜1×10^6 CFU/mL). The cell suspension was further diluted to achieve 2-4×10^3 CFU/mL in RPMI 1640 medium. […] The final concentration of DMSO was ensured to be <1.25% in all experiments.

In data set [8] the test system is C. albicans ATCC MYA-2876(S) (strain C). The description is as above. It counts as cell-based, Candida albicans. Particulars: Candida albicans, 48 h, MIC-0, 48 h at 35° C., read-out: MIC. On the procedure: as §1, §2, §4
In data set [9] the test system is Candida glabrata ATCC 2001 (strain H). The data set is described as above. It counts as cell-based. Conditions: Nakaseomyces glabratus, ATCC2001, 48 h, MIC-0, 48 h at 35° C., read-out: MIC. How it is done:
as §1, §2, §4

Data set [10] has as its system Candida krusei ATCC 6258 (strain I). The description is as above. The class given is cell-based. Particulars: Pichia kudriavzevii, ATCC6258, 48 h, MIC-0, 48 h at 35° C., read-out: MIC. On the procedure:
as §1, §2, §4

The test system of data set [11] is Aspergillus flavus ATCC MYA-3631 (strain K). The data set can be described thus: MIC determination against filamentous fungi (CLSI M38-A2). Particulars: Aspergillus flavus, 48 h, MIC-0, 48 h at 35° C., read-out: MIC. The class given is cell-based. On the procedure: as §1, §2
(§5) Similarly, the MIC values of compounds 7a-24c, as well as that of the two control drugs against filamentous fungi (strains K-M) were determined as previously described in CLSI document M38-A2. Spores were harvested from sporulating cultures growing on potato dextrose agar (PDA) by filtration through sterile glass wool and enumerated by using a hemocytometer to obtain the desired inoculum size. […] Spore suspensions were added to the wells to afford a final concentration of 5×10^5 CFU/mL. The plates were incubated at 35° C. for 48 h. The MIC values of compounds 7a-24c and CAS against filamentous fungi were based on the complete inhibition of growth when compared to the growth control (MIC-0). […] Each test was performed in triplicate.

Data set [12] has as its system Aspergillus nidulans ATCC 38163 (strain L). The data set is described as above. Particulars: Aspergillus nidulans, ATCC38163, 48 h, MIC-0, 48 h at 35° C., read-out: MIC. The class given is cell-based. How it is done: as §1, §2, §5
Data set [13] has as its system Aspergillus terreus ATCC MYA-3633 (strain M). Described as above. The class given is cell-based. Conditions: Aspergillus terreus, 48 h, MIC-0, 48 h at 35° C., read-out: MIC. On the procedure:
as §1, §2, §5

For data set [14], the system named is various yeast strains and filamentous fungi (strains A-M). The data set can be described thus: Antifungal activity over the whole panel (summary of MIC data). It counts as cell-based, Candida and Aspergillus strains. Conditions: for MIC: against all fungal strains tested, with named exceptions, read-out: antifungal activity class based on MIC values. On the procedure:
as §1, §3, §5

Data set [15] has as its system murine red blood cells (mRBCs). Conditions: for Percentage of hemolysis (±SDEV): mouse, 60 min. On the procedure:
Thus, the hemolytic activity for these bishydrazones was investigated against murine red blood cells (mRBCs).
Murine red blood cells (mRBCs) were prepared by suspending 1 mL of murine blood in 3 mL of PBS prior to centrifugation at 1,000 rpm for 5 min. The mRBCs were washed four times in PBS and resuspended in the same buffer to a final concentration of 10^7 mRBC/mL. […] The tubes were incubated at 37° C. for 60 min. […] Eppendorf tubes containing 200 μL of ddH2O and 2 μL of 1% v/v Triton™ X-100 served as negative (blank) and positive controls, respectively. The percentage of hemolysis was calculated using the following equation: % hemolysis=[(absorbance of sample)−(absorbance of blank)]×100/(absorbance of positive control).

The mark [16] stands for this setting: Candida albicans, ATCC10231, 48 h, read-out: MIC.

For orientation: MIC means the least concentration at which growth counts as inhibited. In the case of `COc1ccccc1N/N=C(\C)c1ccc(-c2ccc(/C(C)=N/Nc3ccccc3OC)cc2)cc1` [Compound 9c], the minimum inhibitory concentration (MIC) in [1] (setting [16]) is 15.6 µg/mL (≈ 32.6 µM); in [1] it was 15.6 µg/mL (≈ 32.6 µM); in data set [2] it was 31.3 µg/mL (≈ 65.4 µM); in [3], more than 31.3 µg/mL; in data set [4], more than 31.3 µg/mL; in [5] it was more than 31.3 µg/mL. For the same compound, the MIC in data set [6] was more than 31.3 µg/mL; in [7], 31.3 µg/mL (≈ 65.4 µM); in data set [8] it was more than 31.3 µg/mL; in [9], more than 31.3 µg/mL; in data set [10], 31.3 µg/mL (≈ 65.4 µM); in data set [11] it was more than 31.3 µg/mL. Further, the MIC was more than 31.3 µg/mL in data set [12], more than 31.3 µg/mL in [13] and not below 31.3 µg/mL in data set [14].

As for `Fc1cc(F)cc(N/N=C/c2ccc(-c3ccc(/C=N/Nc4cc(F)cc(F)c4)cc3)cc2)c1` [Compound 22b], the MIC was 15.6 µg/mL (≈ 33.7 µM) in data set [1] (setting [16]); 15.6 µg/mL (≈ 33.7 µM) in [1]; more than 31.3 µg/mL in data set [2]; more than 31.3 µg/mL in data set [3]; more than 31.3 µg/mL in [4]; more than 31.3 µg/mL in data set [5]. The minimal inhibitory concentration (MIC) in data set [6], in data set [7], in [8], in data set [9], in data set [10] and in data set [11] was more than 31.3 µg/mL in each case. Besides, the MIC in data set [12] is more than 31.3 µg/mL; in data set [13], more than 31.3 µg/mL; in data set [14] it was not below 31.3 µg/mL. In addition, in [14] (over the fungal strains tested, based on MIC data of Table 1), the “antifungal activity (in words)” value is on record as “no activity”.

`N=C(N)N/N=C/c1ccc(-c2cccc(/C=N/NC(=N)N)c2)cc1` [Compound 24a]: the MIC is 1.95 to 3.9 µg/mL (≈ 6.05 to 12.1 µM) in data set [1] (setting [16]); 1.95 µg/mL (≈ 6.05 µM) in [2]; 3.9 µg/mL (≈ 12.1 µM) in data set [3]; more than 31.3 µg/mL in data set [4]; 7.8 µg/mL (≈ 24.2 µM) in data set [5]; 3.9 µg/mL (≈ 12.1 µM) in [6]. In addition, the MIC was more than 31.3 µg/mL in [7]; 3.9 µg/mL (≈ 12.1 µM) in data set [8]; 3.9 µg/mL (≈ 12.1 µM) in data set [9]; 1.95 µg/mL (≈ 6.05 µM) in data set [10]; more than 31.3 µg/mL in data set [11]; 7.8 µg/mL (≈ 24.2 µM) in data set [12]. The MIC in data set [13] is 7.8 µg/mL (≈ 24.2 µM). The “hemolytic activity (in words)” value in data set [15] is “lack of hemolytic activity”. Further, the “Percentage of hemolysis (±SDEV)” value stood at 0% in data set [15] (0.975 μg/mL); 1.1 ± 2.2% in data set [15] (1.95 μg/mL); 1.2 ± 1.7% in [15] (3.9 μg/mL); 2.3 ± 0.5% in data set [15] (7.8 μg/mL); 3.8 ± 0.5% in data set [15] (15.6 μg/mL); 3.8 ± 1.7% in [15] (31.3 μg/mL).
